Experimental data taken from Sander's compilation of Henry's law constants (doi:10.1021/je050308b).
Several values for one entry are separate records, joined by “and”; a condition that tells them apart may be missing. Identical values can stand only once.

Test: Henry solubility constant Hcp at 298.15 K (mol/(m3 Pa))
Settings: reference: Lau et al. (2006)

Row | SMILES | Henry solubility constant Hcp
1 | Brc1ccc(Oc2cc(Br)c(Br)cc2Br)c(Br)c1 [2,2',4,4',5-pentabromodiphenyl ether] | 0.62 and 0.33
2 | Brc1ccc(Oc2c(Br)cc(Br)cc2Br)c(Br)c1 [2,2',4,4',6-pentabromodiphenyl ether] | 0.33 and 0.32
3 | Brc1ccc(Oc2ccc(Br)cc2Br)c(Br)c1 [2,2',4,4'-tetrabromodiphenyl ether] | 0.16 and 0.17
4 | Clc1ccc(-c2cc(Cl)c(Cl)cc2Cl)cc1Cl [2,3',4,4',5-pentachlorobiphenyl] | 0.011 and 0.0056
5 | Brc1ccc(Oc2cc(Br)c(Br)c(Br)c2Br)cc1 [2,3,4,4',5-pentabromodiphenyl ether] | 0.62 and 0.77
6 | Clc1ccc(-c2ccccc2Cl)cc1 [2,4'-dichlorobiphenyl] | 0.026 and 0.019
7 | Brc1ccc(Oc2ccc(Br)cc2Br)cc1 [2,4,4'-tribromodiphenyl ether] | 0.11 and 0.077
8 | Clc1ccccc1-c1ccccc1 [2-chlorobiphenyl] | 0.03 and 0.023
9 | Clc1ccc(-c2ccc(Cl)c(Cl)c2)cc1Cl [3,3',4,4'-tetrachlorobiphenyl] | 0.031 and 0.018
10 | Brc1ccc(Oc2ccc(Br)cc2)cc1 [4,4'-dibromodiphenyl ether] | 0.083 and 0.071
11 | Clc1ccc(-c2ccc(Cl)cc2)cc1 [4,4'-dichlorobiphenyl] | 0.05 and 0.033
12 | Brc1ccc(Oc2ccccc2)cc1 [4-bromodiphenyl ether] | 0.05 and 0.043
